Experimental data taken from article PMC8264504, “Identification of Koumine as a Translocator Protein 18 kDa Positive Allosteric Modulator for the Treatment of Inflammatory and Neuropathic Pain” (Frontiers in Pharmacology, 2021).

Tests used:
[1] = molecular target: T1, mouse TSPO recombinant protein (Mus musculus, UniProt P50637); experiment: SPR multicycle kinetics, mouse TSPO in a lipid-free environment; type: binding; conditions: CM5 chip, anti-His capture, read-out: affinity to mouse TSPO
T1 construct: made in house; host or cells: Escherichia coli BL21(DE3) pLysS, pET15b vector
Description: Cells of the BL21(DE3) pLysS Escherichia coli strain were transformed with the pET15b vector, from which the expression of mouse TSPO recombinant protein was induced by 1 mM isopropyl-1-thiol-β-D-galactopyranoside as previously described ([Robert and Lacapère, 2010]; [Senicourt et al., 2017]). Cells were harvested and resuspended in lysis buffer (150 mM NaCl and 50 mM HEPES-Na, pH 7.8) with the addition of 1 mg/ml lysozyme and sonicated thoroughly. The lysate was centrifuged at 15,000 g at 4°C for 20 min to pellet the insoluble inclusion bodies. The final pellet of inclusion bodies was solubilized in binding buffer (150 mM NaCl, 50 mM HEPES-Na, 1% SDS (wt/vol), pH 7.8) and was purified by the Ni-NTA gravity flow column.
SPR analyses were performed at 25°C with a Biacore T200 instrument. For proteoliposomes and liposomes (reference), they were immobilized on a series S L1 sensor chips. It is possible that the repeated regeneration steps in the multicycle kinetics process impairs the activity of TSPO proteoliposomes, thus we were unable to use multicycle kinetics to effectively determine the affinity of TSPO and its ligands. Therefore, the single cycle kinetics, which assumes to be as robust as the classical multicycle kinetics for measuring affinity, was used. Kinetic rate constants for the various analytes were determined using single cycle protocols where five serial 2-fold dilutions of the analytes were injected for 180 s without intervening regeneration, followed by a 300 s dissociation phase after the last injection. Interactions were measured at 30 μl/min. PBS, with addition of 1% DMSO (pH 7.4), was used as running buffer. Three consecutive 1 min injections with 10 μl/min of glycine HCl 3.0 at the end of each single-cycle kinetics regenerated the chip. For mouse TSPO in a lipid-free environment, affinity was measured according to established methods with minor modifications ([Zhang et al., 2015]). Briefly, HBS-EP buffer was used as the running buffer. […]

rat model of CCI = experiment: Chronic constriction injury (CCI) model, MWT; type: in vivo
From the text: (§1) The rat CCI model of neuropathic pain was produced according to the method described by Bennett and Xie ([Bennett and Xie, 1988]). Adult male SD rats were anesthetized by isoflurane delivered by using the anesthetic machine. The right common sciatic nerve was isolated at the mid-thigh level and loosely ligated using four chromic gut (4–0) ties separated by intervals of 1 mm. For sham surgeries, the right sciatic nerve was exposed using the same procedure, but the nerve was not ligated. On the 9th day after surgery, Ro5-4864 or vehicle (5% DMSO) was administered i. p. 50 min before the measurement of mechanical allodynia, and koumine was administered s. c. 60 min before the measurement of mechanical allodynia. To determine whether koumine potentiated the analgesic effects of Ro5-4864, koumine (0.28 mg/kg, s. c.) or vehicle was injected 10 min before Ro5-4864 (0.0625–1.0 mg/kg, i. p.) injection on day 9 after CCI surgery, and the MWT was determined 50 min after the last injection. Animals were randomized for treatment and behavioral test were performed in a blinded manner. Mechanical allodynia was measured using the procedures described below. Only rats with mechanical withdrawal threshold scores (calculated by CCI ipsilateral paw mechanical withdrawal threshold/contralateral paw mechanical withdrawal threshold) on day 8 after CCI surgery >0.75 were used in the study.
(§2) Mechanical allodynia was measured using a commercially available electronic von Frey apparatus (Model 2,390; IITC Life Science Inc., Woodland Hills, CA) as described by Mitrirattanakul ([Mitrirattanakul et al., 2006]) with minor modifications. Rats were placed in a Plexiglas box on a steel mesh floor, and analyses were performed using an electronic von Frey apparatus. Stimulation was applied to the center of the hind paw in an upward motion of the von Frey filament until foot withdrawal occurred, and the withdrawal threshold was automatically recorded. The maximum strength of the filament used for von Frey testing was 55 g. The procedure was repeated three times at approximately 5 min intervals for each hind paw, and the MWT was calculated as the mean of the three latencies.

[2] = test system: naïve and CCI sham-operated rats; experiment: MWT in naïve and CCI sham-operated rats; type: in vivo, rat; conditions: for MWT: given alone
From the text: as §1, with “Animals were randomized for treatment and behavioral test were performed in a blinded manner.” left out
as §2, with “Rats were placed in a Plexiglas box on a steel mesh floor, and analyses were performed using an electronic von Frey apparatus.” left out, “The maximum strength of the filament used for von Frey testing was 55 g.” left out
Figure S5 Modulation of the in vivo efficacy of Ro5-4864 by koumine in the naïve and CCI sham rat model. […] Koumine (0.28 mg/kg) was injected s.c. 9 days after CCI sham surgery, the MWT was determined 60 min after koumine injection. […]

[3] = test system: T98G human glioblastoma cells; experiment: Cell proliferation assay (BrdU ELISA); type: cell-based
Description: T98G cells were plated at 1 × 10^4 cells/well in 96-well plates. […] After 48 h of drug exposure, proliferation was indexed using a BrdU ELISA Kit (Roche Molecular Diagnostics) according to the manufacturer’s protocol, and absorption was measured at 370 nm (reference wavelength 492 nm).

T1 sequence (P50637 whole entry): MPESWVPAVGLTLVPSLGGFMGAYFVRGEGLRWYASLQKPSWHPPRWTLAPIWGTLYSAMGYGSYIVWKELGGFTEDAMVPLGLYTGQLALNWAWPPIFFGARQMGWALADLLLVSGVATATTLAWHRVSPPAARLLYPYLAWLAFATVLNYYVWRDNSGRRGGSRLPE

SMILES | Kd [1] [µM] | CCI-induced mechanical allodynia (MWT) (rat model of CCI; Ro5-4864 alone 0.0625–1.0 mg/kg i.p., 9 days after surgery) | MWT [2] | EC20 concentration, inhibition of cell proliferation ([3]; 48 h, BrdU) [µM] | EC50 ([3]; 48 h, BrdU, read-out: EC50, inhibition of cell proliferation) [µM] | modulation of Ro5-4864-mediated antinociceptive activity (MWT) (rat model of CCI; 0.28 mg/kg koumine s.c. 10 min before 0.0625–0.5 mg/kg Ro5-4864 i.p., day 9) | notable antinociceptive effect on CCI-induced mechanical allodynia (MWT) (rat model of CCI; koumine alone 0.28 mg/kg s.c., day 9) | CCI-induced mechanical allodynia (MWT) (rat model of CCI; koumine alone 1.4 and 7.0 mg/kg s.c., day 9) | modulation of antinociceptive effect of Ro5-4864 (MWT) ([2]; koumine 0.28 mg/kg s.c. before Ro5-4864 i.p.) | shift of PK11195 concentration-response curve ([3]; 316.3 μM koumine) | shift of Ro5-4864 concentration-response curve ([3]; 400 μM koumine) | cell proliferation ([3]; koumine on its own at 1–600 μM) | modulation of inhibition of proliferation ([3]; koumine with an EC20 concentration of PK11195 (∼75 μM)) | modulation of inhibition of proliferation ([3]; koumine with an EC20 concentration of Ro5-4864 (∼23 μM))
CN1C(=O)CN=C(c2ccc(Cl)cc2)c2cc(Cl)ccc21 [Ro5-4864, reference compound] | 170 ± 6.07 | inhibited CCI-induced mechanical allodynia in a dose-dependent manner | Neither Ro5-4864 nor koumine altered the MWT | ~23 | 66 |  |  |  |  |  |  |  |  | 
C=C[C@@]12CN(C)[C@H]3C[C@]14C(=Nc1ccccc14)[C@H]1C[C@@H]2[C@@H]3CO1 [koumine] | 97.4 ± 1.76 |  | Neither Ro5-4864 nor koumine altered the MWT |  |  | significantly augmented | not | notable antinociceptive effects | could not significantly augment | produced a leftward shift in the potency | produced a leftward shift in the potency | did not affect | significantly increased the inhibition of proliferation | significantly increased the inhibition of proliferation
